Residues, ends and D or L forms follow the SMILES beside them.
Experiments:
[1] = In vitro stability in 50% liver homogenate; type: in vitro ADME, mouse; details: 37°C, HPLC-UV 220 nm, one phase decay, least square fit, n = 3
Procedure: (§1) The samples were analyzed at 40°C on a Phenomenex Lichrosorb RP8 C8 column (4.0 mm × 250 mm, 5 μm), using the gradient elution method on an Agilent HPLC system (Agilent Technologies, Cheadle, UK) equipped with an 1100 series degasser, quaternary pump, autosampler, and column heater, and attached to an Agilent 1200 series PDA detector and a 1250 series fluorescent detector. The flow rate was set at 1.2 mL min^-1, and the injection volume was set at 40 μL, while detection was performed at 220 nm. The mobile phase was a mixture of mobile phase A (0.1% TFA in water) and phase B (0.08% TFA in acetonitrile), and in the first 5 min, the mobile phase was an 8:2 ratio of A:B (v/v) and from 5 to 15 min the percentage of B was raised from 8:2 to 1:9 (v/v). Linear calibration curves were constructed for both peptides between 0.1–100 μg.mL^−1. The retention time for the human Lau–PTEN-PDZ, mouse Lau–PTEN-PDZ, human Myr–PTEN-PDZ, and mouse Myr–PTEN-PDZ was 12.03, 11.60, 13.68, and 13.91, respectively.
(§2) The liver and brain of the mice were excised from […] CD-1 male mice (7 weeks-old: Charles River Laboratories) sacrificed with CO2, and the tissue was frozen immediately with liquid nitrogen prior to storage at −80°C. The liver and brain tissue were thawed and homogenized on ice in PBS (2 mL/g of tissue) using a glass 3 mL tissue homogenizer (20 strokes per sample), and the liver and brain homogenates were centrifuged (Heraeus Multifuge 3sf, Fisher Scientific, Basingstoke, UK) at 4300 g for 60 min at 4°C and at 3000 g for 20 min at 4°C, respectively. The supernatant was stored at −80°C, diluted 1:1 (v/v) with PBS (1x, pH 7.4), and used in stability studies. Peptides stocks (5 mM in DMSO) were prepared and maintained at −20°C prior to performing stability studies. These stock solutions (120 μL) were added to the diluted pre-warmed (37°C) liver or brain homogenate (50% v/v, 1080 μL) with agitation (100 rpm: Grant Aqua Waterbath), and samples (80 μL) were taken at 0, 5, 10, 15, 30, 45, 60, 90, 120, 180, 240, 360 and 1440 min, and diluted with ice-cold acetonitrile (80 μL). Samples were vortexed and left at −80°C at least overnight to allow for maximum protein precipitation, the samples were vortexed again for 15 min, centrifuged and the supernatant was analyzed by HPLC as described above.
(§3) The total protein concentration in the homogenates was determined using the Bradford protein assay ([7],[15]) and BSA as a standard. Ten stock solutions of BSA were prepared in PBS between 0.1–1 mg mL^−1, and 40 μL of each of the diluted stocks were added to 1.2 mL of Bradford reagent and incubated at room temperature for 5 min. The absorbance was recorded at 595 nm using a Multiskan GO spectrophotometer and the SkanIt software (Thermo Scientific, Paisley, UK). A linear calibration curve was obtained in this range that was used to extrapolate the protein content of 1:100 v/v stock solutions of 50% mouse plasma, liver, and brain homogenates diluted in PBS.

[2] = In vitro stability in 50% brain homogenate; type: in vitro ADME, mouse; details: 37°C, HPLC-UV 220 nm, one phase decay, least square fit, n = 3
Procedure: as §1, §2, §3

[3] = Permeability across in vitro 2D human blood-brain barrier model; type: in vitro ADME; details: read-out: Papp0-4h, Experiment 2
[4] = 50% w/v mouse liver homogenate in PBS pH 7.4
[5] = 50% w/v mouse brain homogenate in PBS pH 7.4

CCCCCCCCCCCCCC(=O)N[C@@H](CCC(N)=O)C(=O)N[C@@H](Cc1c[nH]cn1)C(=O)N[C@@H](CO)C(=O)N[C@@H](CCC(N)=O)C(=O)N[C@H](C(=O)N[C@H](C(=O)N[C@@H](CCCCN)C(=O)N[C@H](C(=O)O)C(C)C)[C@@H](C)O)[C@@H](C)CC [Mouse Myr-PTEN-PDZ] (HELM PEPTIDE1{[CCCCCCCCCCCCCC(=O)[*:2]].Q.H.S.Q.I.T.K.V}$$$$V2.0)
k ([1]; 50% w/v CD-1 mouse liver homogenate in PBS pH 7.4, 120 μL of 5 mM DMSO stock in 1080 μL, 100 rpm, 0-1440 min): 0.51 h⁻¹ | t1/2 (h) [1, 4]: 1.36 h | t1/2 (min) [1, 4]: 81.66 min | k ([2]; 50% w/v CD-1 mouse brain homogenate in PBS pH 7.4, 120 μL of 5 mM DMSO stock in 1080 μL, 100 rpm, 0-1440 min): 2.71 h⁻¹ | t1/2 (h) [2, 5]: 0.25 h | t1/2 (min) [2, 5]: 15.32 min | Papp A→B at 100 μM [3]: 2.63 ± 0.08 ×10⁻⁶ cm/s

From article PMC7473970, “Preformulation Studies of a Stable PTEN-PDZ Lipopeptide Able to Cross an In Vitro Blood-Brain-Barrier Model as a Potential Therapy for Alzheimer’s Disease” (Pharmaceutical Research, 2020)
